Converted amounts (≈) assume the structure as drawn. Like-named read-outs stand apart in the source and are kept apart here.
What was measured:
MRSA ATCC BAA-44 [1] = test: Broth microdilution MIC determination; assay type: cell-based, Staphylococcus aureus; settings: for MIC: Staphylococcus aureus
MRSA ATCC BAA-44 [2] = test: Biofilm dispersion assay (crystal violet, pre-formed biofilm); assay type: cell-based; settings: Staphylococcus aureus, Table 2
MRSA ATCC BAA-44 [3] = test: Biofilm inhibition assay (crystal violet); assay type: cell-based, Staphylococcus aureus; settings: for inhibition at 5 µM / IC50 / inhibition at 40 µM: Staphylococcus aureus; for IC50: MRSA ATCC BAA-44; for inhibition at 40 µM: Table 2; for fold reduction in biofilm inhibition activity: 7 versus 4, 8 versus 1
Experimental: (§1) General Information. Methicillin-resistant Staphylococcus aureus (MRSA) strains were obtained from the Laboratory of Professor Christian Melander (NCSU) ATCC (33591, BAA 44, BAA 1685, BAA 1770, BAA 43 300) and colonies were grown on solid media as instructed. Mueller-Hinton broth (MHB, 211443-BD), tryptic soy broth (TSB, Remel: R455052) and D-glucose (CAS: 492-62-6) were purchased from Fisher Scientific. Tryptic soy agar (TSA, cat. #22091) and Linezolid (cat. # P70014) were purchased from Sigma-Aldrich. Bacteria for biofilm inhibition and dispersion assays were cultured overnight in TSBG (tryptic soy broth with 0.5% glucose supplement). All assays were run in duplicate and repeated at least two separate times for MIC assays and at least four separate times for biofilm inhibition and dispersion assays. All compounds were dissolved molecular biology grade DMSO as 100 mM stock solutions and further diluted to 10 and 1 mM stock solutions as needed. Optical densities were measured using a Thermo Scientific Genesys 20 spectrophotometer. Data for biofilm inhibition and dispersion assays was collected using a BioTek ELx808 Microplate Reader. All graphs were generated and analyzed using GraphPad Prism 7.
Biofilm Inhibition Assay. Studies were performed using the standard method described in S. A. Rogers and C. Melander, Angew Chem Int Ed, 2008, 47, 5229-5231. Briefly, biofilm inhibition assays were performed by taking an overnight culture of bacterial strain and subculturing it at an OD600 of 0.01 into the necessary growth liquid medium (LB for A. baumannii, LBNS for P. aeruginosa, Stainer-Scholte medium that was supplemented with 10 μL/mL of 100× nutrient complex for B. bronchiseptica and TSB w/0.3% glucose for S. aureus) for the strain. The compound being tested was then added at a predetermined concentration and then aliquoted (100 μL) into the wells of a 96-well PVC microtiter plate (wells not used for samples are filled with 100 μL of de-ionized water). Plates were then wrapped in GLAD Press n' Seal and incubated under stationary conditions at 37° C. After 24 hours, the media was discarded from the wells and the plates were washed thoroughly with tap water. Plates were then stained with 100 μL of 0.1% solution of crystal violet (CV) and then incubated at an ambient temperature for 30 minutes. Sample plates were then washed with tap water again and the remaining stain was solubilized with 200 μL of 95% ethanol. Biofilm inhibition was quantitated by measuring the OD540 for each well by transferring 125 μL of the solubilized CV stain into a polystyrene microtiter dish for analysis. Biofilm inhibition was quantified by measuring the OD540 of each well and calculated as a percentage of the control (no compound); a negative control lane wherein no biofilm was formed served as a background and was subtracted out.
(§2) Percent inhibition was then plotted against concentration in Prism 7. Each of the four experiments were plotted separately and analyzed by a normalized nonlinear regression. The IC50 values reported represent an arithmetic mean of the four IC50 values. Biofilm data represent four separate experiments, with each experiment performed in duplicate (average of 8 data points for each concentration tested, unless otherwise noted)

MRSA ATCC BAA-44 [4] = test: Biofilm dispersion assay (crystal violet, pre-formed biofilm); assay type: cell-based, Staphylococcus aureus; settings: Staphylococcus aureus; for % dispersion of pre-formed biofilm at 5 µM: MRSA ATCC BAA 44; for IC50: MRSA ATCC BAA-44
Experimental: as §1
Biofilm Dispersion Assay. Studies were performed using the standard method described in J. J. Richards, T. E. Ballard and C. Melander, Org Biomol Chem, 2008, 6, 1356-1363. Briefly, dispersion assays were performed by taking an overnight culture of bacterial strain and subculturing it at an OD600 of 0.01 into the necessary growth liquid medium. The resulting bacterial suspension was aliquoted (100 μL) into the wells of a 96-well PVC microtiter plate. Plates were then wrapped in GLAD Press n' Seal followed by an incubation under stationary conditions at an ambient temperature. After 24 hours, the media was discarded from the wells and the plates were washed thoroughly with tap water. Predetermined concentrations of the test compound were then made in the same medium used to initially grow the biofilms and then aliquoted (100 μL) into the wells of the 96-well PVC microtiter plate with the established biofilms. Plates were then wrapped in GLAD Press n'Seal and incubated under stationary conditions at 37° C. After 24 hours, the media was discarded from the wells and the plates were washed thoroughly with tap water. Plates were then stained with 100 μL of 0.1% solution of crystal violet (CV) and then incubated at room temperature for 30 minutes. Plates were then washed with tap water again and the remaining stain was solubilized with 200 μL of 95% ethanol. Biofilm dispersion was quantitated by measuring the OD540 for each well by transferring 125 μL of the solubilized CV stain into a polystyrene microtiter dish for analysis. Biofilm inhibition was quantified by measuring the OD540 of each well and calculated as a percentage of the control (no compound), a negative control lane wherein no biofilm was formed served as a background and was subtracted out.
as §2, with “dispersion” for “inhibition”

MRSA ATCC 33591 = test: Broth microdilution MIC determination; assay type: cell-based; settings: Staphylococcus aureus, Table 1, read-out: Antimicrobial Activity MIC
Experimental: as §1
Broth microdilution protocol for minimum inhibition concentration (MIC) determination. Studies were performed using the standard method prescribed by the Clinical and Laboratory Standards Institute (CLSI) M07-A8, Vol. 29 (2), which is hereby incorporated herein by reference. Briefly, fresh Mueller-Hinton broth (MHB) ˜3 ml, was inoculated (5×10^5 CFU mL^−1) with MRSA (ATCC 33591) methicillin-resistant Staphylococcus aureus. The resulting bacterial suspension was aliquoted (1 mL) into culture tubes and test compound (10 mM DMSO stock solution) was added to reach the final concentration of the interest. Bacteria not treated with the antimicrobial compound served as the control. Rows 2-12 of a 96-well microtiter plate were filled with remaining bacterial subcultures. The samples containing test compound were aliquoted (200 μL) into the first row wells of the microtiter plate (2 wells per compound). Row 1 wells were mixed 6-8 times and 100 μL was transferred down to row 2. Row 2 wells were mixed 6-8 times, followed by a 100 μL transfer from row 2 down to row 3. The rest of the rows of the plate were serially diluted in similar fashion. The plate was covered with sealing tape for 96-well plates (ThermoFisher) and incubated under stationary conditions at 37° C. A duplicate of the plate was prepared.

red blood cells = test: Lysis of red blood cells; assay type: cell-based; settings: 100 μM
[5] = MRSA ATCC BAA 44, Table 2, read-out: MIC
[6] = MRSA ATCC BAA-44, Table 1, read-out: Antimicrobial Activity MIC

SMILES | antimicrobial activity (in words) (MRSA ATCC BAA-44 [1]; MRSA ATCC BAA-44) | MIC (MRSA ATCC BAA-44 [1]; [5]) [µg/mL] | MIC (MRSA ATCC BAA-44 [1]; [6]) [µg/mL] | inhibition at 40 µM (MRSA ATCC BAA-44 [2]) [%] | inhibition at 5 µM (MRSA ATCC BAA-44 [3]; 5 μM, MRSA ATCC BAA 44) [%] | IC50 (MRSA ATCC BAA-44 [3]) [µM] | inhibition at 40 µM (MRSA ATCC BAA-44 [3]; MRSA ATCC BAA 44) [%] | dose dependence of biofilm inhibition (in words) (MRSA ATCC BAA-44 [3]; relative to MIC) | % dispersion of pre-formed biofilm at 5 µM (MRSA ATCC BAA-44 [4]) [%] | IC50 (MRSA ATCC BAA-44 [4]) [µM] | MIC (MRSA ATCC 33591) [µg/mL] | red blood cells lysed (red blood cells) [%] | fold reduction in antimicrobial activity (MRSA ATCC BAA-44 [1]; 7 compared with 4) [fold] | fold reduction in biofilm inhibition activity (MRSA ATCC BAA-44 [3]) [fold] | biofilm activity (in words) (MRSA ATCC BAA-44 [3]; even at 40 μM) | % Biofilm Inhibition (5 μM) (MRSA ATCC BAA-44 [3]; 5 μM, MRSA ATCC BAA 44) [%]
CCCCCCCCC(Cl)(Cl)C1NC(=O)/C(=C/c2ccc(C(F)(F)F)cc2)O1 (stereo not drawn) [Compound 3, (Z)-2-(1,1-dichlorononyl)-5-(4-(trifluoromethyl)benzylidene)oxazolidin-4-one] | completely abolished | > 128 | > 128 | 19 | 68 | 1.7 | 75 | dose-dependent biofilm inhibition at concentrations well below their MIC | 19 | 6.6 | > 128 | 7 | – | – | – | –
CC(Cl)(Cl)C1NC(=O)/C(=C/c2ccc(C(F)(F)F)cc2)O1 (stereo not drawn) [Compound 4, (Z)-2-(1,1-dichloroethyl)-5-(4-(trifluoromethyl)benzylidene)oxazolidin-4-one] | – | 32 (≈ 94.1 µM) | 32 (≈ 94.1 µM) | – | 55 | 3.6 | – | – | 50 | 5 | 32 (≈ 94.1 µM) | – | – | – | – | –
C#CCC(Cl)(Cl)C1NC(=O)/C(=C/c2ccc(C(F)(F)F)cc2)O1 (stereo not drawn) [Compound 5, (Z)-2-(1,1-dichlorobut-3-yn-1-yl)-5-(4-(trifluoromethyl)benzylidene)oxazolidin-4-one] | – | 16 (≈ 43.9 µM) | 16 (≈ 43.9 µM) | – | 64 | 1.9 | – | – | 63 | 6 | 16 (≈ 43.9 µM) | – | – | – | – | –
CCCCC(Cl)(Cl)C1NC(=O)/C(=C/c2ccccc2)O1 (stereo not drawn) [Compound 6, (Z)-5-benzylidene-2-(1,1-dichloropentyl)oxazolidin-4-one] | – | 64 (≈ 204 µM) | 64 (≈ 204 µM) | 26 | 51 | 3.2 | – | – | 14 | 5.3 | 64 (≈ 204 µM) | – | – | – | – | –
CC(C)(C)C1NC(=O)/C(=C/c2ccc(C(F)(F)F)cc2)O1 (stereo not drawn) [Compound 7, (Z)-2-(tert-butyl)-5-(4-(trifluoromethyl)benzylidene)oxazolidin-4-one] | – | 128 (≈ 428 µM) | 128 (≈ 428 µM) | 31 | 31 | 7.3 | 51 | – | 5.7 | 9.2 | 128 (≈ 428 µM) | – | 4 | 3 | – | –
CCCCCC1NC(=O)/C(=C/c2ccc(C(F)(F)F)cc2)O1 (stereo not drawn) [Compound 8, (Z)-2-pentyl-5-(4-(trifluoromethyl)benzylidene)oxazolidin-4-one] | – | 64 (≈ 204 µM) | 16 (≈ 51.1 µM) | – | 17 | 7.3 | 53 | – | – | – | 16 (≈ 51.1 µM) | – | – | 5 | – | –
CCCCCCNC(=O)C(=O)Cc1ccc(C(F)(F)F)cc1 [Compound 9, N-hexyl-2-oxo-3-(4-(trifluoromethyl)phenyl)propanamide] | no antimicrobial activity | > 128 | > 128 | -6.5 | 24 | > 20 | 41 | – | -24 | > 20 | > 128 | – | – | – | only modest biofilm activity | –
CCCCC(Cl)(Cl)C1NC(=O)/C(=C/c2ccc(OC)cc2)O1 (stereo not drawn) [Compound 11, (Z)-2-(1,1-di-Chloropentyl)-5-(4-methoxybenzylidene)oxazolidin-4-one] | – | > 128 | – | 58 | < 50 | – | 52 | – | 49 | – | – | – | – | – | – | 39

Source: patent publication US10822315B2, “5-benzylidene-4-oxazolidinones” (NORTH CAROLINA STATE UNIVERSITY, priority 2016, dated 2020)
